Measured values taken from ChEMBL document CHEMBL1156028, “Synthesis of 1,6,7,8-tetrahydro-naphtho[2,3-d]-azepino[4,5-b]indole-9,14-diones and their inhibitory effects on pro-inflammatory cytokines” (Bioorg Med Chem Lett, 2009).
Calls of active or inactive are those of the source. No cut-off for these calls is given here.

Legend:
[1] = Cytotoxicity against mouse RAW264.7 cells assessed as cell viability at 1 to 5 ug/ml after 4 hrs by MTT assay; format: cell-based; details: read-out: Activity
RAW264.7 [2] = experiment: Antiinflammatory activity in mouse RAW264.7 cells assessed as inhibition of LPS-induced nitric oxide production after 24 hrs by immunoassay; format: functional, cell-based
RAW264.7 [3] = experiment: Antiinflammatory activity in mouse RAW264.7 cells assessed as inhibition of LPS-induced PGE2 production at 5 ug/ml after 24 hrs by immunoassay; format: functional, cell-based
RAW264.7 [4] = experiment: Antiinflammatory activity in mouse RAW264.7 cells assessed as inhibition of LPS-induced TNFalpha production after 24 hrs by immunoassay; format: functional, cell-based
RAW264.7 [5] = experiment: Antiinflammatory activity in mouse RAW264.7 cells assessed as inhibition of LPS-induced IL1-beta production at 1 to 5 ug/ml after 24 hrs by immunoassay; format: functional, cell-based
RAW264.7 [6] = experiment: Antiinflammatory activity in mouse RAW264.7 cells assessed as inhibition of LPS-induced IL-6 production at 1 to 5 ug/ml after 24 hrs by immunoassay; format: functional, cell-based
RAW264.7 [7] = experiment: Antiinflammatory activity in mouse RAW264.7 cells assessed as inhibition of LPS-induced PGE2 production at 1 ug/ml after 24 hrs by immunoassay; format: functional, cell-based

Row | SMILES | viability at 4 h [1] [%] | Activity (RAW264.7 [2]) | Activity (RAW264.7 [3]) | Activity (RAW264.7 [4]) | Activity (RAW264.7 [5]) | Activity (RAW264.7 [6]) | inhibition (RAW264.7 [7])
1 | CN1CCc2c([nH]c3ccccc23)C2=C1C(=O)c1ccccc1C2=O | 58 | Dose-dependent effect | Active | Dose-dependent effect | inactive | inactive | 
2 | C=CCN1CCc2c([nH]c3ccccc23)C2=C1C(=O)c1ccccc1C2=O | 24 | Dose-dependent effect | Active | Dose-dependent effect | inactive | inactive | 
3 | COc1ccc2[nH]c3c(c2c1)CCNC1=C3C(=O)c2ccccc2C1=O | 58 | Dose-dependent effect | Active | Dose-dependent effect | inactive | inactive | inactive
4 | CCCN1CCc2c([nH]c3ccccc23)C2=C1C(=O)c1ccccc1C2=O | 58 | Dose-dependent effect | Active | Dose-dependent effect | inactive | inactive | 
5 | COc1cccc2c1C(=O)C1=C(NCCc3c1[nH]c1ccccc31)C2=O | 58 | Dose-dependent effect | Active | Dose-dependent effect | inactive | inactive | inactive
6 | O=C1C2=C(C(=O)c3ccccc31)c1[nH]c3ccccc3c1CCN2 | 58 | Dose-dependent effect | Active | Dose-dependent effect | inactive | inactive | inactive
7 | O=C1C2=C(C(=O)c3ccccc31)N(Cc1ccccc1)CCc1c2[nH]c2ccccc12 | 58 | Dose-dependent effect | Active | Dose-dependent effect | inactive | inactive | inactive
